System: C. elegans wild-type N2 strain
Experiment: Worm culture and growth assay in axenic CeHR/mCeHR liquid medium
Type: in vivo
Parameters: key to Growth 1.6 μM hemin / Growth 0.5 μM GaPP: + = wild type equivalent In growth; ND: No growth
Experimental: (D) Biphasic response of C. elegans cultured in the presence of increasing amounts of hemin chloride (μM). Equal numbers of synchronized L1 larvae were grown in 24-well plates in mCeHR medium for 9 days and quantified (worms/μl) by microscopy. Each data point represents the mean±SD from three separate experiments performed in triplicate.
(A) Aerobic growth of C. elegans in mCeFIR medium with 20 μM hemin supplemented with either gallium protoporphyrin IX (GaPP) or gallium salts. Synchronized L1 larvae were grown for 9 days in 24-well plates and quantified (worms/μl) by microscopy. Each data point represents the mean from a single experiment, and each experiment was performed in triplicate. Inset depicts the GaPP analysis at lower concentrations for clarity.
(B) Effect of heme on the cytotoxicity of GaPP. Synchronized L1 larvae were inoculated in 24-well plates containing mCeHR medium with either 0, 2, 4, or 6 μM GaPP and increasing hemin (μM). The number of worms per μl was measured on day 9 and the data are presented as mean±SD.
FIG. 9 depicts worm utilization of heme-iron under iron deprivation. Equal numbers of synchronized L1 larvae were grown in the presence of 4, 20, and 100 μM hemin, either in basal mCeHR medium (set 1), or basal medium lacking exogenous iron (set 2), or as set 2 with 1 μM of the iron chelator ferrozine (set 3), or as set 3 with 486 μM ferrous ammonium sulfate (set 4). These values of ferrozine and iron were empirically determined by performing dose-response experiments and analyzing worm growth. The number of worms per μl was measured on day 9 and the data presented as mean±SD performed in triplicate. P<0.001 between sets 1 and 3.
To qualitatively and quantitatively determine the heme requirement of C. elegans, we assessed growth at various heme concentrations. Equal numbers of L1 larvae were inoculated in CeHR medium with either no cytochrome c and hemin, or with cytochrome c and increasing amounts of hemin (FIG. 4A). The effect of hemin became apparent within 48 hours and by 9 days, the heme-deplete worms were severely growth retarded at the L1/L2 stages. […] However, this stimulatory effect of heme was toxic to worms grown at heme concentrations >750 μM. To quantitatively assess the effect of heme on worms, we counted the number of live worms grown under different concentration of heme using DIC microscopy. […] On the basis of this association between heme and the growth and reproduction of C. elegans, we conclude that the biphasic nature of heme is likely due to the need for heme under heme-deprived conditions to perform essential metabolic functions, and the lethality of heme at high concentrations can be attributed to its cytotoxic activity.
Worm Culture and Growth Assays. Free-living worms were cultured in CeHR axenic liquid medium (Dr. Eric Clegg, Personal Communication). […] CeHR medium was modified (henceforth called mCeHR) to eliminate all sources of exogenously added heme; basal growth medium comprised 20 μM hemin chloride (Frontier Scientific, Logan, Utah) and 150 μM of ferrous ammonium sulfate (Sigma Chemicals). Worm strains were grown in mCeHR medium under aerobic conditions in tissue culture flasks at 20° C. ˜3.7×10^6 worms were routinely obtained after 3.5 to 4 days in a T75 flask with 30 ml basal medium from an initial inoculum of −1.5×10^5 worms. For initial culturing of worms in axenic media, three generations of worms were sequentially bleached (1.1% bleach/0.55 M NaOH) to eliminate any contaminating bacterial carryover from agar plates. In all dose-response experiments, worms were growth synchronized by treating the gravid hermaphrodite worms with bleach to dissolve adult worms. The eggs, resistant to bleach, were liberated from the carcasses and extensively washed with M9 buffer followed by overnight hatching in M9 buffer to synchronize growth. By harvesting at appropriate time intervals, synchronous larval stages and adult staged worms were collected for experimental manipulations. […]

Substance: hemin chloride
- growth delay compared to worms grown at 20 μM hemin (4 and 500 μM hemin): ~24 h
- effect on growth under iron deprivation (20 and 100 μM hemin, with ferrozine, P<0.001): attenuated the growth retarding effects of iron deprivation
- heme concentrations toxic to worms (CeHR medium): > 750 µM
- hemin concentration at which maximum growth was achieved (CeHR medium with cytochrome c, L1 larvae inoculum): 10 µM
- Growth 1.6 μM hemin (Control Wild-type (N2)): +
- Generation time (Days) 20 μM (Control Wild-type (N2), 20 μM hemin): 3.5 days
- brood size 20 μM (Control Wild-type (N2), 20 μM hemin, average in 24 well plates): 62.3
- Generation time (Days) 800 μM (Control Wild-type (N2), 800 μM hemin): >16 days
- sensitivity to heme in liquid medium versus heme plates (in vivo): 10 times
- hemin amount resulting in growth arrest at the L3 stage (mCeHR medium): ≥ 800 µM
- optimum concentration of hemin for growth (mCeHR medium, 9 days): 20 µM

Reference: patent US20060206946A1, “Method of disrupting heme transport in nematodes and of modelling and evaluating eukaryotic heme transport” (priority 2005, published 2006)
